Assay results: article PMC10067842 (Scientific Reports, 2023)
Values joined by “and” are separate entries in the source; they are usually repeats but may differ in a detail not shown here. Equal entries are not always repeated. “Also recorded” adds a separate entry of the source. Where two headings read alike, the source gives them in different places.

Experiments:
[1] = target: T1, ORF3a viroporin of SARS-CoV-2 (Severe acute respiratory syndrome coronavirus 2, UniProt P0DTC3); details: for activity against ORF3a (ORF3a-induced cytotoxicity): cell viability assay, result in words
[2] = target: T1, ORF3a viroporin of SARS-CoV-2; assay: cell-based; details: IC50, reversing viroporin-induced cell damage
[3] = target: T2, ORF3a channel of SARS-CoV-2 (Severe acute respiratory syndrome coronavirus 2, UniProt P0DTC3); assay: cell-based; details: for IC50: whole-cell currents, current differences at −60 mV, read-out: IC50, patch-clamp
T2 sequence (P0DTC3 1-275): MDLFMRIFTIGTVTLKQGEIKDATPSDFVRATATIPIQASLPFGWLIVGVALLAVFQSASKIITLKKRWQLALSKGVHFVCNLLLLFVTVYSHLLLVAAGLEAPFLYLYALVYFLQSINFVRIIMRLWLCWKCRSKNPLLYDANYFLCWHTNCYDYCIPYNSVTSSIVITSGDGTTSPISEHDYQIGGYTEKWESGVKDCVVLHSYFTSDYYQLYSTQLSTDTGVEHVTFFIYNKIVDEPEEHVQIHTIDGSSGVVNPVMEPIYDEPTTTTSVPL

ORF3a of SARS-CoV [4] = details: Xenopus oocytes; cited from earlier work
SARS-CoV = details: cited from earlier work
[5] = system: HEK293 cells transfected with ORF3a; type: cell-based
HCoV-OC43 = details: cited from earlier work
ORF3a of SARS-CoV [6] = details: cited from earlier work
HEK293 cells = assay: MTT cell viability assay of control cells transfected with empty vector; type: cell-based; details: 5 µM and higher (> 1 µM for ECGC), 10–20 µM
[7] = current–voltage recordings, result in words

Q: For O=c1cc(-c2ccc(O)cc2)oc2cc(O)cc(O)c12 [apigenin], which “activity against ORF3a (ORF3a-induced cytotoxicity)” value [1] is on record?
A: inactive

Q: Which “Percentage inhibition from MTT data at the highest inhibitor concentration” value (shortened to “Percentage inhibition from MTT data”) ([1]; Fig. 4D) does the source give for NC12CC3CC(CC(C3)C1)C2 [amantadine, reference compound] here?
A: 78%

Q: What about the IC50 [2] of the same compound?
A: 43700 ± 11100 nM

Q: And the IC50 [3]?
A: 4.5 ± 0.2 nM

Q: For O=c1c(-c2ccc(O)cc2)coc2cc(O)cc(O)c12 [genistein], which “activity against ORF3a (ORF3a-induced cytotoxicity)” value [1] is on record?
A: inactive

Q: And the “inhibition of ORF3a activity of SARS-CoV” value (ORF3a of SARS-CoV [4])?
A: do not

Q: For CC(N)C12CC3CC(CC(C3)C1)C2 (stereo not shown) [rimantadine, reference compound], which “potency of rimantadine higher than that of amantadine” value ([1]; cell viability assays) is on record?
A: ~ tenfold

Q: And the IC50 [2]?
A: 4400 ± 1300 nM

Q: What about the “potency of rimantadine higher than that of amantadine” value ([3]; patch clamp experiments) of the same compound?
A: approximately fourfold

Q: Which “inhibition of viral replication” value (SARS-CoV; SARS-CoV infected Vero E6 cells) does the source give for COc1cc(/C=C/C(=O)CC(=O)/C=C/c2ccc(O)c(OC)c2)ccc1O [curcumin] here?
A: effectively inhibited viral replication

Q: What about the “Percentage inhibition from MTT data” value [1] of the same compound?
A: 72%

Q: And the “activity against ORF3a channel in patch-clamp” value (shortened to “activity against ORF3a channel”) [3]?
A: confirmed the inhibitory activity

Q: Which results are given for CCCCC[C@H](O)CC(=O)CCc1ccc(O)c(OC)c1 [6-gingerol]?
A: activity in the same expression system (SARS-CoV; Vero E6 cells): only low activity; activity against ORF3a (ORF3a-induced cytotoxicity) [1]: inactive; morphology of ORF3a-transfected cells after treatment [5]: morphology of dying cells; activity against ORF3a channel in patch-clamp [3, 7]: inactive

Q: For Oc1ccc(/C=C/c2cc(O)cc(O)c2)cc1 [resveratrol], which “Percentage inhibition from MTT data” value ([1]; Fig. 4D) is on record?
A: 86%

Q: What about the “activity against ORF3a (ORF3a-induced cytotoxicity)” value [1] of the same compound?
A: inhibitory activity

Q: What about the IC50 [2] of the same compound?
A: 6700 nM and 6730 nM

Q: What about the “activity against ORF3a channel” value [3, 7] of the same compound?
A: confirmed the inhibitory activity

Q: What about the IC50 [3] of the same compound?
A: 1.5 ± 0.1 nM

Q: With O=C1C[C@@H](c2ccc(O)cc2)Oc2cc(O)cc(O)c21 [naringenin] as the compound, how does the “activity against ORF3a (ORF3a-induced cytotoxicity)” value [1] read?
A: inactive

Q: What about the “inhibition of ORF3a activity of SARS-CoV” value (ORF3a of SARS-CoV [4]) of the same compound?
A: do not

Q: Which results are given for Cc1cc(O)c2c(c1)C(=O)c1cc(O)cc(O)c1C2=O [emodin]?
A: virus release (HCoV-OC43): able to repress virus release; inhibition of ORF3a of SARS-CoV (ORF3a of SARS-CoV [6]): inhibitor

Q: With O=c1c(O)c(-c2ccc(O)cc2)oc2cc(O)cc(O)c12 [kaempferol] as the compound, how does the “activity against ORF3a (ORF3a-induced cytotoxicity)” value [1] read?
A: inhibitory activity

Q: And the IC50 [2]?
A: 5200 nM and 5230 nM

Q: What about the IC50 [3] of the same compound?
A: 2.4 ± 0.5 nM

Q: With O=c1c(O)c(-c2ccc(O)c(O)c2)oc2cc(O)cc(O)c12 [quercetin] as the compound, how does the “effect on viability of control cells (cytotoxic or proliferative effects)” value (from here on “effect on viability of control cells”) (HEK293 cells) read?
A: increased cell proliferation

Q: What about the “effect on viability of control cells” value (HEK293 cells; listed as Quercetin) of the same compound?
A: increased cell viability

Q: And the “activity against ORF3a (ORF3a-induced cytotoxicity)” value [1]?
A: inhibitory activity

Q: And the IC50 [2]?
A: 2500 ± 200 nM

Q: And the “activity against ORF3a channel” value [3, 7]?
A: confirmed the inhibitory activity

Q: What about the IC50 [3] of the same compound?
A: 3.9 ± 0.7 nM

Q: Which results are given for COc1ccc(-c2cc(=O)c3c(OC)c(OC)c(OC)c(OC)c3o2)cc1OC [nobiletin]?
A: effect on viability of control cells (cytotoxic or proliferative effects) (HEK293 cells): increased cell proliferation; also recorded: increased cell viability; activity against ORF3a (ORF3a-induced cytotoxicity) [1]: inhibitory activity; activity against ORF3a (ORF3a-induced cytotoxicity) ([1]; listed as Nobiletin): potent activity; IC50 [2]: 3800 ± 900 nM; activity against ORF3a channel in patch-clamp [3, 7]: confirmed the inhibitory activity; IC50 [3]: 1.8 ± 0.3 nM

Q: For epigallocatechin gallate [EGCG], which “effect on viability of control cells” value (HEK293 cells) is on record?
A: increased cell proliferation; also recorded: increased cell viability

Q: What about the “activity against ORF3a (ORF3a-induced cytotoxicity)” value [1] of the same compound?
A: inhibitory activity

Q: And the IC50 ([1]; read-out: IC50, reversing viroporin-induced cell damage)?
A: 1600 nM and 1560 nM

Q: And the “morphology of ORF3a-transfected cells after treatment” value [5]?
A: healthy cells with normal morphology

Q: And the “activity against ORF3a channel” value [3, 7]?
A: confirmed the inhibitory activity

Q: And the IC50 [3]?
A: 0.7 ± 0.1 nM
